We go through one compound from BindingDB's records for doi:10.1021/acs.jmedchem.7b00155 (University of Bari Aldo Moro, 2017).

For the assay, the target named is Cannabinoid receptor 1 (Homo sapiens, UniProt P21554). Kind of assay: ChEBML_1680109. An excerpt: Agonist activity at human CB1 receptor expressed in mouse AtT-20 cells co expressing GIRK by FLIPR assay
Chain of Cannabinoid receptor 1 (P21554 whole entry): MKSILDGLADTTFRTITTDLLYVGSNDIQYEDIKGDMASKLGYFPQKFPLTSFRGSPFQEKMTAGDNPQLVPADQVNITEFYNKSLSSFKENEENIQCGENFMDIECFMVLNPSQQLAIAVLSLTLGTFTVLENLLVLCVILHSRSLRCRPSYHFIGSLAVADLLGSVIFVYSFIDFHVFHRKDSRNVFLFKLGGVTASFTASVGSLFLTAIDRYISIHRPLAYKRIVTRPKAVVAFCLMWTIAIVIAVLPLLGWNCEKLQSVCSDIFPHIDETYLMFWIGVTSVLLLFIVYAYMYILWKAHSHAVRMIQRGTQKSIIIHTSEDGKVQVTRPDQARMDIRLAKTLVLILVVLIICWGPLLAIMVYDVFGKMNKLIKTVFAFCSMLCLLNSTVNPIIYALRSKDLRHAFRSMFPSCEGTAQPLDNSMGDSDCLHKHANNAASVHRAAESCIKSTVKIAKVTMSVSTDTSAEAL

With `CC(C)[C@H](NC(=O)c1nn(Cc2ccc(F)cc2)c2ccccc12)C(N)=O`, the concentration for a half-maximal effect (EC50) amounted to 2.1 nM.

What is called EC50 is the concentration that produces a half-maximal response. Low readings indicate greater potency, high ones weaker potency.
